These are literature values, as cited in paper PMC9698773, “Design, Synthesis, Molecular Modeling, and Anticancer Evaluation of New VEGFR-2 Inhibitors Based on the Indolin-2-One Scaffold” (Pharmaceuticals, 2022).

This data set deals with HepG2 cells. Also on record: method as in PMID 29901131. Particulars: HepG2 liver cancer cells; cited from earlier work.

With `CNC(=O)c1cc(Oc2ccc(NC(=O)Nc3ccc(Cl)c(C(F)(F)F)c3)cc2)ccn1` [Sorafenib], the “phase of cell cycle arrest” value is “S phase and G2/M phase”.
